Test results reported in ChEMBL document CHEMBL1201862, “PubChem BioAssay data set” (2004).
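Exposure lasted 48 hours, with cells grown in 96-well plates and compounds tested at five concentrations. The concentration for 50% growth inhibition is given as GI50.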 Activity calls are given as the source filed them. No stated cut-off is given here; in the data, active = GI50 up to about 1.1 µM and inactive = higher.

Experiments:
Assay in all cases: NCI anticancer screen, dose series, 48 h
[1] = test system: NCI-H460
[2] = test system: A549
[3] = test system: SF-539
[4] = test system: M14
[5] = test system: MOLT-4
[6] = test system: SR
[7] = test system: RXF 393
[8] = test system: SNB-19
[9] = test system: OVCAR-4
[10] = test system: HCT-116
[11] = test system: OVCAR-8
[12] = test system: SF-268
[13] = test system: UACC-257
[14] = test system: SK-MEL-2
[15] = test system: NCI-H522
[16] = test system: SW-620
[17] = test system: HOP-92
[18] = test system: UO-31
[19] = test system: SK-MEL-28
[20] = test system: KM12

Row | SMILES | GI50 [1] | GI50 [2] | GI50 [3] | GI50 [4] | GI50 [5] | GI50 [6] | GI50 [7] | GI50 [8] | GI50 [9] | GI50 [10] | GI50 [11] | GI50 [12] | GI50 [13] | GI50 [14] | GI50 [15] | GI50 [16] | GI50 [17] | GI50 [18] | GI50 [19] | GI50 [20]
1 | CCOC(=O)C1CCn2c(nc3c(=O)n(C)c(=O)n(C)c32)S1 (stereo not given) | > 100 µM (inactive) | > 100 µM (inactive) | > 100 µM (inactive) | > 100 µM (inactive) | > 100 µM (inactive) | > 100 µM (inactive) | > 100 µM (inactive) | > 100 µM (inactive) | > 100 µM (inactive) | > 100 µM (inactive) | > 100 µM (inactive) | > 100 µM (inactive) | > 100 µM (inactive) | > 100 µM (inactive) | > 100 µM (inactive) | > 100 µM (inactive) |  |  |  | 
2 | O=C(O)CCCCCCC[C@H]1S[C@H]1CCCCCCO |  |  | > 100 µM (inactive) | > 100 µM (inactive) | > 100 µM (inactive) | > 100 µM (inactive) | > 100 µM (inactive) | > 100 µM (inactive) | > 100 µM (inactive) | > 100 µM (inactive) | > 100 µM (inactive) | > 100 µM (inactive) |  | > 100 µM (inactive) |  |  | < 0.01 µM (active) | > 100 µM (inactive) | > 100 µM (inactive) | > 100 µM (inactive)
3 | COc1cccc(C(=O)C#Cc2cnc(OC)nc2OC)c1 | 9.08 µM (inactive) | 4.82 µM (inactive) |  | 1.21 µM (inactive) | 0.155 µM (active) | 0.108 µM (active) | 0.331 µM (active) | 15.8 µM (inactive) | 2.36 µM (inactive) | 3.18 µM (inactive) | 1.7 µM (inactive) | 2.49 µM (inactive) | 2.15 µM (inactive) | 1.8 µM (inactive) | 0.226 µM (active) | 0.504 µM (active) | 2.09 µM (inactive) | 1.37 µM (inactive) | 2.04 µM (inactive) | 3.94 µM (inactive)
4 | CC(C)(C)OC(=O)NC(Cc1ccccc1)C(=O)N[C@H]1c2ccsc2/C(=N/O)[C@H]1O (stereo not given in full) | > 100 µM (inactive) | > 100 µM (inactive) | > 100 µM (inactive) | > 100 µM (inactive) | 83 µM (inactive) | > 100 µM (inactive) | > 100 µM (inactive) | > 100 µM (inactive) | 35.2 µM (inactive) | > 100 µM (inactive) | > 100 µM (inactive) |  | > 100 µM (inactive) | > 100 µM (inactive) |  | > 100 µM (inactive) | > 100 µM (inactive) | > 100 µM (inactive) |  | 
5 | COc1ccc(/C=C2/SC(c3ccccc3)N(NC(=O)CCCCCCCCC(=O)NN3C(=O)/C(=C\c4ccc(OC)c(OC)c4)SC3c3ccccc3)C2=O)cc1OC (stereo not given) | 71 µM (inactive) | > 100 µM (inactive) | 24.6 µM (inactive) | > 100 µM (inactive) | 19.7 µM (inactive) | 15.6 µM (inactive) | 58.5 µM (inactive) | 86.1 µM (inactive) | 76.7 µM (inactive) | 29.1 µM (inactive) | 67.8 µM (inactive) | 69.3 µM (inactive) | 39.4 µM (inactive) | 52.7 µM (inactive) |  | 54.8 µM (inactive) | 17.3 µM (inactive) | 58.2 µM (inactive) | 48 µM (inactive) | 45 µM (inactive)
6 | Cc1c(N2C(=O)/C(=C/c3ccc(Cl)cc3)N=C2c2ccccc2)c(=O)n(-c2ccccc2)n1C | 31 µM (inactive) | 28.8 µM (inactive) | 28.5 µM (inactive) | 36.8 µM (inactive) | 21.2 µM (inactive) | 30.5 µM (inactive) | 22.3 µM (inactive) |  | 33.9 µM (inactive) | 32.3 µM (inactive) | 43.7 µM (inactive) | 30.8 µM (inactive) | 18.3 µM (inactive) | 16.7 µM (inactive) | 19.8 µM (inactive) | 31.9 µM (inactive) | 18.7 µM (inactive) | 26.2 µM (inactive) |  | 26.5 µM (inactive)
7 | O=c1sc(Nc2ccc3ccccc3c2Cl)nc2ccccc12 | 60.4 µM (inactive) | > 100 µM (inactive) | 73.8 µM (inactive) |  |  | 7.08 µM (inactive) | 72.1 µM (inactive) | > 100 µM (inactive) | > 100 µM (inactive) | > 100 µM (inactive) |  | > 100 µM (inactive) | > 100 µM (inactive) | > 100 µM (inactive) | > 100 µM (inactive) | > 100 µM (inactive) | 35.9 µM (inactive) | > 100 µM (inactive) | > 100 µM (inactive) | > 100 µM (inactive)
8 | CC(C)CC(N/C=C1/N=C(c2ccccc2)OC1=O)C(=O)O (stereo not given) | > 100 µM (inactive) | > 100 µM (inactive) | > 100 µM (inactive) | > 100 µM (inactive) | > 100 µM (inactive) | > 100 µM (inactive) | > 100 µM (inactive) | > 100 µM (inactive) | > 100 µM (inactive) | > 100 µM (inactive) | > 100 µM (inactive) | > 100 µM (inactive) | > 100 µM (inactive) | > 100 µM (inactive) | > 100 µM (inactive) | > 100 µM (inactive) |  | > 100 µM (inactive) | > 100 µM (inactive) | > 100 µM (inactive)
9 | O=C1c2ccccc2C(=O)c2c1sc1nc3ccccc3n21 | 1.79 µM (inactive) | 10.7 µM (inactive) | 1.81 µM (inactive) | 1.73 µM (inactive) | 1.97 µM (inactive) | 3.53 µM (inactive) | 1.79 µM (inactive) | 2.11 µM (inactive) |  | 1.7 µM (inactive) | 1.9 µM (inactive) | 1.89 µM (inactive) | 1.88 µM (inactive) |  |  |  | 10.4 µM (inactive) | 2.01 µM (inactive) |  | 1.83 µM (inactive)
10 | Fc1ccc(C(OCCN2CCN(CCCc3ccccc3)CC2)c2ccc(F)cc2)cc1 | 4.34 µM (inactive) | 3.58 µM (inactive) |  | 3.12 µM (inactive) | 4.26 µM (inactive) | 2.71 µM (inactive) | 3.67 µM (inactive) | 3.99 µM (inactive) | 4.15 µM (inactive) |  | 3.92 µM (inactive) | 4.18 µM (inactive) | 2.81 µM (inactive) | 3.75 µM (inactive) | 3.48 µM (inactive) | 5.47 µM (inactive) | 3.5 µM (inactive) | 2.73 µM (inactive) | 9.73 µM (inactive) | 4.19 µM (inactive)
11 | COC(=O)C1(OC(=O)Sc2ccccc2)CCN(C)CC1 | 23.6 µM (inactive) | 11.4 µM (inactive) | 10.8 µM (inactive) | 15.5 µM (inactive) | 6.68 µM (inactive) | 10.8 µM (inactive) | 14.3 µM (inactive) | 28.3 µM (inactive) | 23.2 µM (inactive) | 14.9 µM (inactive) | 16.7 µM (inactive) | 18.4 µM (inactive) | 20.2 µM (inactive) | 58.3 µM (inactive) | 16.2 µM (inactive) | 21.7 µM (inactive) |  | 3.79 µM (inactive) | 27.9 µM (inactive) | 10.9 µM (inactive)
12 | COc1ccc(-c2nc(-c3cnccn3)n(Cc3ccccc3)n2)cc1 | > 100 µM (inactive) | > 100 µM (inactive) | > 100 µM (inactive) | > 100 µM (inactive) | > 100 µM (inactive) | > 100 µM (inactive) | > 100 µM (inactive) | > 100 µM (inactive) | > 100 µM (inactive) | > 100 µM (inactive) | > 100 µM (inactive) | > 100 µM (inactive) | > 100 µM (inactive) |  | > 100 µM (inactive) | > 100 µM (inactive) | > 100 µM (inactive) | > 100 µM (inactive) | > 100 µM (inactive) | > 100 µM (inactive)
13 | N#CC(=S)Nc1ccc(F)cc1 | 55.3 µM (inactive) | 33.6 µM (inactive) | 38.2 µM (inactive) | 54.3 µM (inactive) | 31.3 µM (inactive) | 40.6 µM (inactive) | 42.1 µM (inactive) | > 100 µM (inactive) | 28.6 µM (inactive) | 86.1 µM (inactive) | 96.2 µM (inactive) | 96.8 µM (inactive) | 30.6 µM (inactive) | > 100 µM (inactive) |  | 60.8 µM (inactive) | 19.4 µM (inactive) |  | 45.5 µM (inactive) | 70.3 µM (inactive)
14 | CCN(CC)CCNC(=O)c1cc2cc(NC(=O)c3cc4cc(NC(=O)c5cc6cc(N)ccc6[nH]5)ccc4[nH]3)ccc2[nH]1 | > 100 µM (inactive) | > 100 µM (inactive) |  | > 100 µM (inactive) | > 100 µM (inactive) | > 100 µM (inactive) | > 100 µM (inactive) | > 100 µM (inactive) | > 100 µM (inactive) |  | > 100 µM (inactive) | > 100 µM (inactive) | > 100 µM (inactive) | > 100 µM (inactive) | > 100 µM (inactive) | > 100 µM (inactive) | > 100 µM (inactive) | > 100 µM (inactive) | > 100 µM (inactive) | > 100 µM (inactive)
15 | Cc1ccc2nc(NC(=O)/C(Cc3nc4ccc(Cl)cc4nc3O)=N\NC(C)(C)C)sc2c1 | > 100 µM (inactive) | > 100 µM (inactive) | > 100 µM (inactive) | > 100 µM (inactive) | > 100 µM (inactive) | > 100 µM (inactive) | > 100 µM (inactive) | > 100 µM (inactive) | 12.5 µM (inactive) | > 100 µM (inactive) | > 100 µM (inactive) | 97.9 µM (inactive) | > 100 µM (inactive) | > 100 µM (inactive) |  | > 100 µM (inactive) | > 100 µM (inactive) | 59.6 µM (inactive) | > 100 µM (inactive) | > 100 µM (inactive)
